Measurements reported in patent US12648941B2, “Piperidine urea derivatives for use as inotropic agents” (Helsinn Healthcare SA, priority 2021, dated 2026).
Entries after “also recorded” stand apart in the source; their conditions may differ.

Legend:
[1] = system: cardiomyocytes isolated from hearts of SHAM mice; assay: Intracellular Ca2+ transients (Fluo-3, confocal line scan); format: cell-based, mouse
Method: Cardiomyocytes were isolated freshly from cardiac ventricles separately from SHAM and HF mice following the protocol developed by the Alliance for Cellular Signalling (AfCS Procedure Protocol ID PP00000125). From each of the 5 SHAM and 3 HF hearts a cell suspension was made and divided into 10 aliquots each, for a total of 50 aliquots from SHAM and 30 aliquots from HF hearts. These aliquots were treated with vehicle, AC01/HM01 or D-Lys3-GHPR-6+AC01/HM01 as stated and used for the subsequent physiological and biochemical experiments.
AC01/HM01 was suspended in phosphate buffer saline solution (PBS: in mM: NaCl 137, KCl 7, Na2HPO4 10, KH2PO4 […]) and diluted to obtain 3 different concentrations: 0.2, 0.5 or 1 μM in Tyrode solution. We used a concentration range within 0.2-1 μM to ensure that the receptor was activated. […] Prior to contractility and Ca^2+ signaling measurements and biochemical assays, cardiomyocyte suspensions from SHAM and HF hearts were randomized to 3 types of treatments: vehicle, AC01/HM01, or D-Lys3-GHPR-6+AC01/HM01. The treatment with different agents occurred for 15 minutes at room temperature. Some cell suspension aliquots were flash frozen in liquid N2 and stored at −80° C. for later biochemistry analyses. All the experiments were conducted blinded regarding the treatment of cardiomyocytes.
Fresh isolated cardiomyocytes were aliquoted in 1.5 ml tubes and incubated with a cell permeable form of fluorescent Ca2+ indicator Fluo-3 AM followed by washing for >5 min. […] ImageJ software (open source software developed by NIH, Bethesda, USA) was used to quantify changes in fluorescence (Ca2+ transients) and contractility of single cardiomyocytes.
Ca^2+ transients were measured using a confocal microscope (Biorad) in line scan mode. […] The fluorescent signal (F/Fo) was calculated as the ratio between resting fluorescence before the start of the Ca^2+ transient (FO) and the peak fluorescence (F) of the Ca^2+ transient.

[2] = Phase 1 single ascending dose study, urinary excretion; format: in vivo, human; conditions: 10 mg dose; urine collected 24 hours
Method: Blood samples for analytical assay of HM01 and the 3 major metabolites (M2, M6 and M9) were collected at pre-dose (within 60 minutes prior to drug administration), and at 0.25, 0.5, 1, 1.5, 2, 3, 4, 6, 8, 12, 16, 24, 30, 36, 48, 60 and 72 hours post dose (18 samples). Urine was collected for 24 hours after dosing. Blood and urine samples were analyzed for HM01 and its metabolites concentrations using validated LC-MS/MS methods.
Additional parameters were derived from urine, i.e., Ae(0-24), the amount of the parent drug and metabolites excreted in 24 h, and CLR, the renal clearance.

prolactin = assay: Phase 1 SAD pharmacodynamics, serum prolactin (ELISA); format: in vivo, human
Method: Blood samples for determination of growth hormone (GH), insulin-like growth factor-1 (IGF-1), adrenocorticotropic hormone (ACTH), prolactin, cortisol and aldosterone in serum at pre-dose and 0.5, 1, 2, 3, 4, 6 and 24 hours post-dose were collected by venous puncture. All biomarkers were determined using enzyme linked immunosorbent assays (ELISA). Simplified nutritional appetite questionnaire based on appetite assessments at Day −1 after dinner, and on Day 1 pre-dose, 1, 2, 4, 8, and 24 hours after dosing. Stool diary starting on Day 1 until discharge on Day 4.

COc1ccc([C@H](C)NC(=O)N(C)[C@@H]2CCN(C)CC2(C)C)c(Cl)c1Cl.Cl [AC01/HM01, 1-[(1S)-1-(2,3-dichloro-4-methoxyphenyl)ethyl]-3-methyl-3-[(4R)-1-methyl-3,3-dimethyl-4-piperidyl]-urea]
Ca2+ transient amplitude vs vehicle ([1]; 1 μM, with D-Lys 3 GHRP-6 pretreatment): did not have any impact on Ca^2+ transient amplitudes; also recorded: did not change the Ca^2+ transient amplitude
Ca2+ transient amplitude vs vehicle ([1]; 1 μM, without D-Lys3 pretreatment): did not have any impact on Ca^2+ transient amplitudes; also recorded: did not change the Ca^2+ transient amplitude
Ca2+ transient amplitude vs vehicle ([1]; all tested concentrations (0.2, 0.5, 1 μM)): no significant change in Ca^2+ transient amplitude; also recorded: did not cause alteration of Ca^2+ transient amplitudes
fraction of the dose excreted in the urine [2]: Approximately 10%
prolactin increase, comparison of doses (prolactin; 10 mg vs 1.0 mg): higher after 10 mg compared to 1.0 mg
concentrations of prolactin (prolactin; 1.0 and 10 mg HM01): rapidly increased above baseline values
